Laboratory results published in patent publication US20060258644A1, “Pyrrolobenzodiazepines and heteroaryl, aryl and cycloalkylamino ketone derivatives as follicle stimulating hormone receptor (FSH-R) antagonists” (Wyeth, priority 2005, published 2006).
Where a name gives a salt, the structure may show the parent alone. Read-outs that look alike come from different tables or passages of the source.

Experiments:
[1] = target: T1, human FSH receptor (Homo sapiens, UniProt P23945); assay: FSH receptor-dependent CRE-luciferase reporter gene assay (CHO FSH-R 6CRE-Luc cells); assay type: cell-based; settings: for inhibition at 30 µM: test concentration in μM in parentheses (30 μM), % inhibition of the response to the EC50 of FSH
T1 construct: host or cells: CHO-K1 (CHO FSH-R 6CRE-Luc, 1D7 cells)
T1 sequence (P23945 18-695): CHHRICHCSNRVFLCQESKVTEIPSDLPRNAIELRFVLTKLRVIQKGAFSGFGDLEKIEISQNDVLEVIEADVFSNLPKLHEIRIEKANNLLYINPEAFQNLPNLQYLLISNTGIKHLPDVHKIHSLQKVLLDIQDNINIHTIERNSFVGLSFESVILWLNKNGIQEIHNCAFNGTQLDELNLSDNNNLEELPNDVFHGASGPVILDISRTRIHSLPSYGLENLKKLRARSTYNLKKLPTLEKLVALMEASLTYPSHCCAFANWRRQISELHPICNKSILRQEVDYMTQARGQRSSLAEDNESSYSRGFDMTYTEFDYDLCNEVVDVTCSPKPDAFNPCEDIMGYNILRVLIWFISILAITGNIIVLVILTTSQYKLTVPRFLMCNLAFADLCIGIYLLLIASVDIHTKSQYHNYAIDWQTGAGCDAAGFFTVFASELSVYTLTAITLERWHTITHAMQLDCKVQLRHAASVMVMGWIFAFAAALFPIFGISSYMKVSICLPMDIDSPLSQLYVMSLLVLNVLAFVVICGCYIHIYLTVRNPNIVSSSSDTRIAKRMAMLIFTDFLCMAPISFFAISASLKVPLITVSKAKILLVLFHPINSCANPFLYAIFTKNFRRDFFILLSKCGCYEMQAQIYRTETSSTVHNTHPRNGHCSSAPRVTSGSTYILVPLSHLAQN
Text: Follicle-Stimulating Hormone Receptor-Dependent CRE-Luciferase Reporter Gene Assay for the Identification of Follicle-Stimulating Hormone (FSH) Antagonists
This procedure was used to identify and determine the relative potencies of human FSH receptor antagonists using a Chinese hamster ovarian cell line that stably produces the human FSH receptor and a luciferase reporter gene regulated by cAMP response elements.
The compounds were subsequently diluted in DMSO to working dilutions of 1 and 20 or 30 mM for 2-dose testing format and 1 μM-10 mM for dose-response format. The DMSO dilutions were diluted 500-fold in sterile growth medium [D-MEM/F-12 (GIBCO/BRL; Grand Island N.Y.) containing 15 mM HEPES, 2 mM 1-glutamine, pyridoxine hydrochloride, phenol red and 5% FetalClone II (HyClone Laboratories, Inc; Logan, Utah), 0.2% DMSO, 100 units penicillin G/ml, and 100 μg streptomycin sulfate/ml (GIBCO/BRL)]. The concentration of the vehicle in each of the compound dilutions was the same. • Positive Controls: Purified human FSH (>98%) was purchased from Cortex Biochem, Inc. (San Leandro, Calif.) and WAY-162002 (an FSH-R thiazolidinone antagonist) was obtained from the Wyeth Research compound repository. Preparation of Cells
The CHO FSH-R 6CRE-Luc cells (1D7 cells) were obtained from Affymax (Palo Alto, Calif.). These Chinese hamster ovary cells (CHO—K1) were genetically engineered to stably express the recombinant human FSH receptor gene and a luciferase reporter gene under the regulation of 6 copies of a cAMP response element. The cells were plated one day prior to treatment into 96-well white opaque plates at a density of 50,000 cells/100 μl/well in growth medium. On the day of treatment, the growth medium was removed from the wells by aspiration and 50 μl of fresh growth medium was added to each well. The cells were incubated at 37° C. in a humidified incubator with 5% CO2/95% air.
The treated cells were incubated for 4 hours at 37° C. in a humidified incubator with 5% CO2/95% air. At the end of-the incubation period, luciferase activity was measured by chemiluminescence using a commercially available kit (LucScreen, Tropix, Inc., Bedford, Mass.) according to the manufacturer's specifications, except that Buffer 1 and Buffer 2 were mixed together in equal proportion prior to the addition of 100 μl of the combined reagents to each well. Chemiluminescence was detected using a luminometer (EG & G Berthold Microlumat LB 96 P, Wallac, Gaithersburg, Md.) with chemiluminescence measured for 1 sec/well. Background luminescence was measured for each well prior to the addition of the LucScreen reagent.
In the 96-well 2-dose format, each compound was tested in duplicate at each dose. […] One plate was used to test a maximum of 22 compounds.
The EC50 of purified human FSH alone was tested in triplicate with each test compound. The doses chosen to test each compound were extrapolated from the initial 2-dose screening process. Along with the test compounds, purified human FSH was also tested in a dose response (0.03, 0.1, 0.3, 1, 3, 10, and 30 ng/ml) for a positive control and quality control. One plate was used for 3 test compounds and the FSH positive control.
Luciferase activity is expressed as relative light units/sec/well. Luciferase activity in antagonist was compared to the appropriate negative and positive controls. For 2-dose testing, results are reported as luciferase activity and are expressed as % inhibition of the response obtained from the EC50 of FSH. For dose-response testing, results are reported as IC50 values. Data were analyzed statistically by one-way analysis of variance with appropriate weighting and transformation and relevant paired test as determined by Biometrics (Wyeth Research, Princeton, N.J.). IC50 values were calculated using the Stat/Excel program developed by Biometrics with appropriate weighting and transformation.

[2] = dose-response in presence of EC50 of purified human FSH, read-out: CRE IC50

Compound: O=C(c1ccc(Cl)cc1)c1ccc2n1Cc1ccccc1N(C(=O)COc1ccc(Cl)cc1)C2 [Example 10, {10-[(4-Chlorophenoxy)acetyl]-10,11-dihydro-5H-pyrrolo[2,1-c][1,4]benzodiazepin-3-yl}(4-chlorophenyl)methanone]
- IC50 [1, 2]: > 30 µM
- melting point: 195 °C

Compound: Cc1cc(Cl)ccc1OCC(=O)N1Cc2ccc(C(=O)CCc3ccccc3)n2Cc2ccccc21 [Example 5, 1-{10-[(4-Chloro-2-methylphenoxy)acetyl]-10,11-dihydro-5H-pyrrolo[2,1-c][1,4]benzodiazepin-3-yl}-3-phenylpropan-1-one]
- IC50 [1, 2]: > 30 µM
- melting point: 130 to 134 °C

Compound: Cc1cc(Cl)ccc1OCC(=O)N1Cc2ccc(C(=O)c3ccc(Cl)cc3)n2Cc2ccccc21 [Example 4, {10-[(4-Chloro-2-methylphenoxy)acetyl]-10,11-dihydro-5H-pyrrolo[2,1-c][1,4]benzodiazepin-3-yl}(4-chlorophenyl)methanone]
- inhibition at 30 µM [1]: 22%
- melting point: 175 to 176 °C

Compound: Cc1cc(Cl)ccc1OCC(=O)N1Cc2ccc(C(=O)c3ccccc3-c3ccccc3)n2Cc2ccccc21 [Example 9, 1,1′-Biphenyl-2-yl{10-[(4-chloro-2-methylphenoxy)acetyl]-10,11-dihydro-5H-pyrrolo[2,1-c][1,4]benzodiazepin-3-yl}methanone]
- IC50 [1, 2]: > 30 µM

Compound: NC(=O)c1cccc(N2C(=O)[C@@H](CC(=O)NCCc3c[nH]c4ccccc34)S[C@H]2c2ccc(C#Cc3ccccc3)s2)c1 (relative stereo) [3-[(2S*,5R*)-5-{[2-(1H-Indol-3-yl)-ethylcarbamoyl]-methyl}-4-oxo-2-(5-phenylethynyl-thiophen-2-yl)-thiazolidin-3-yl]-benzamide, reference compound]
- IC50 ([1]; positive control, in the presence of EC50 of purified human FSH, read-out: IC50 in CRE-luciferase assay): 2 µM

Compound: Cc1cc(Cl)ccc1OCC(=O)N1Cc2ccc(C(=O)c3ccc(C(C)(C)C)cc3)n2Cc2ccccc21 [Example 8, (4-Tert-butylphenyl){10-[(4-chloro-2-methylphenoxy)acetyl]-10,11-dihydro-5H-pyrrolo[2,1-c][1,4]benzodiazepin-3-yl}methanone]
- IC50 [1, 2]: > 30 µM
- melting point: 168 °C

Compound: Cc1ccccc1-c1ccc(C(=O)N2Cc3ccc(C(=O)CCc4cccnc4)n3Cc3ccccc32)cc1 [Example 15, 1-{10-[(2′-Methyl-1,1′-biphenyl-4-yl)carbonyl]-10,11-dihydro-5H-pyrrolo[2,1-c][1,4]benzodiazepin-3-yl}-3-pyridin-3-ylpropan-1-one]
- IC50 [1, 2]: 12.1 µM
- melting point: 135 to 136 °C

Compound: O=C(c1ccc(-c2ccccc2)cc1)c1ccc2n1Cc1ccccc1N(C(=O)COc1ccc(Cl)cc1)C2 [Example 13, 1,1′-Biphenyl-4-yl{10-[(4-chlorophenoxy)acetyl]-10,11-dihydro-5H-pyrrolo[2,1-c][1,4]benzodiazepin-3-yl}methanone]
- inhibition at 30 µM [1]: 14%
- melting point: 155 to 157 °C

Compound: CC(C)(C)c1ccc(C(=O)c2ccc3n2Cc2ccccc2N(C(=O)COc2ccc(Cl)cc2)C3)cc1 [Example 12, (4-tert-Butylphenyl){10-[(4-chlorophenoxy)acetyl]-10,11-dihydro-5H-pyrrolo[2,1-c][1,4]benzodiazepin-3-yl}methanone]
- IC50 [1, 2]: > 30 µM
- melting point: 171 °C

Compound: Cc1cc(Cl)ccc1OCC(=O)N1Cc2ccc(C(=O)c3ccc(-c4ccccc4)cc3)n2Cc2ccccc21 [Example 7, 1,1′-Biphenyl-4-yl{10-[(4-chloro-2-methylphenoxy)acetyl]-10,11-dihydro-5H-pyrrolo[2,1-c][1,4]benzodiazepin-3-yl}methanone]
- IC50 [1, 2]: > 30 µM
- melting point: 102 to 105 °C

Compound: Cc1cc(Cl)ccc1OCC(=O)N1Cc2ccc(C(=O)c3cccc4ccccc34)n2Cc2ccccc21 [Example 6, {10-[(4-Chloro-2-methylphenoxy)acetyl]-10,11-dihydro-5H-pyrrolo[2,1-c][1,4]benzodiazepin-3-yl}(1-naphthyl)methanone]
- IC50 [1, 2]: > 30 µM
- melting point: 130 to 134 °C

Compound: O=C(CCc1ccccc1)c1ccc2n1Cc1ccccc1N(C(=O)COc1ccc(Cl)cc1)C2 [Example 11, 1-{10-[(4-Chlorophenoxy)acetyl]-10,11-dihydro-5H-pyrrolo[2,1-c][1,4]benzodiazepin-3-yl}-3-phenylpropan-1-one]
- inhibition at 30 µM [1]: 8%
- melting point: 126 to 128 °C

Compound: Cc1ccccc1-c1ccc(C(=O)N2Cc3ccc(C(=O)CNc4cccnc4)n3Cc3ccccc32)cc1C [Example 1, 1-{10-[(2,2′-Dimethyl-1,1′-biphenyl-4-yl)carbonyl]-10,11-dihydro-5H-pyrrolo[2,1-c][1,4]benzodiazepin-3-yl}-2-(pyridin-3-ylamino)ethanone formic acid salt]
- inhibition at 30 µM [1]: 4%

Compound: O=C(CCc1cccnc1)c1ccc2n1Cc1ccccc1N(C(=O)c1ccc(-c3ccccc3)cc1)C2 [Example 2, 1-[10-(1,1′-Biphenyl-4-ylcarbonyl)-10,11-dihydro-5H-pyrrolo[2,1-c][1,4]benzodiazepin-3-yl]-3-pyridin-3-ylpropan-1-one formic acid salt]
- IC50 [1, 2]: 10.7 µM

Compound: O=C(c1ccccc1-c1ccccc1)c1ccc2n1Cc1ccccc1N(C(=O)COc1ccc(Cl)cc1)C2 [Example 14, 1,1′-Biphenyl-2-yl{10-[(4-chlorophenoxy)acetyl]-10,11-dihydro-5H-pyrrolo[2,1-c][1,4]benzodiazepin-3-yl}methanone]
- IC50 [1, 2]: > 30 µM
